Target: CK2α (Homo sapiens, UniProt P68400)
Assay: biochemical
Details: read-out: % inhibition of phosphorylation activity of CK2α

CK2α, sequence (P68400 2-329): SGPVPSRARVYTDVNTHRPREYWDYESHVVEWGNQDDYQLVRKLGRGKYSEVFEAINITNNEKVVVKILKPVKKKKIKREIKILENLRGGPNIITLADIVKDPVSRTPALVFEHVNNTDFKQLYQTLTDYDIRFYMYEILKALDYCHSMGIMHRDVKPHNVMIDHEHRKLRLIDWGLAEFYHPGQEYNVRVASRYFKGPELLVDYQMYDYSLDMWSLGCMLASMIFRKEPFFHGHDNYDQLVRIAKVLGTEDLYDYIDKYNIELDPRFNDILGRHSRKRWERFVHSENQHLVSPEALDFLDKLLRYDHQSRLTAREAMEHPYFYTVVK

## NCc1cc(Cl)cc(-c2cccc3[nH]ccc23)c1 [Compound 7, (3-chloro-5-(1H-indol-4-yl)phenyl)methanamine]
  inhibition at 100 µM: 18%
